Experimental findings from ChEMBL document CHEMBL5465560, “Selectivity Literature for EUbOPEN Chemogenomic Library” (2024) are described below.

The structures appear in SMILES notation. A value given as a limit tells only on which side of the number the result lay.

The target in experiment [1] is T1, Alpha-1B adrenergic receptor (Homo sapiens) (UniProt P35368).
T1 sequence (whole entry): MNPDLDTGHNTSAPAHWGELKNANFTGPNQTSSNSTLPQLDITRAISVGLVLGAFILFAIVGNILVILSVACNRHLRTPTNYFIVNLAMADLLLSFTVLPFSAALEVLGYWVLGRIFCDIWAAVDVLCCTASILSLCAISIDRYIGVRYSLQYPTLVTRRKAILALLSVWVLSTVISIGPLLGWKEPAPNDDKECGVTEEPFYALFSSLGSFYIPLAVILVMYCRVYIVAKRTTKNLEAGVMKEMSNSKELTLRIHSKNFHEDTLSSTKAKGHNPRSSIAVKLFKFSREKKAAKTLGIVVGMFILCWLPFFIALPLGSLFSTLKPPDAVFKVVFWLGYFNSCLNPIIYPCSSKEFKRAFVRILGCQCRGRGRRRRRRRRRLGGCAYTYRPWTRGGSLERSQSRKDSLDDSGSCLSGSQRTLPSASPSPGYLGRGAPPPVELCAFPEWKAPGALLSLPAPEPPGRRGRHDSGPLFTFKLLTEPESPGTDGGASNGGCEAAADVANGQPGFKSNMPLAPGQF
In words: Selectivity interaction (Panel of kinases, GPCRs, ion channels and transporters (enzymatic assay)) EUB0000266bCl ADRA1B.

Experiment [2] has as its target Cyclin-dependent kinase 1/cyclin B (Homo sapiens) (UniProt P06493+P14635+Q8WWL7+O95067). As to the kind of experiment: Selectivity interaction (Upstate Kinase Profiler service (Millipore)) EUB0000056c CDK1. The format is protein-complex assay. The conditions noted are these: at 1 µM.
The target in experiment [3] is RAC-alpha serine/threonine-protein kinase (Homo sapiens, UniProt P31749). Particulars: at 10 µM.
The target of experiment [4] is T2, Serine/threonine-protein kinase Chk1 (Homo sapiens) (UniProt O14757).
T2 sequence (whole entry): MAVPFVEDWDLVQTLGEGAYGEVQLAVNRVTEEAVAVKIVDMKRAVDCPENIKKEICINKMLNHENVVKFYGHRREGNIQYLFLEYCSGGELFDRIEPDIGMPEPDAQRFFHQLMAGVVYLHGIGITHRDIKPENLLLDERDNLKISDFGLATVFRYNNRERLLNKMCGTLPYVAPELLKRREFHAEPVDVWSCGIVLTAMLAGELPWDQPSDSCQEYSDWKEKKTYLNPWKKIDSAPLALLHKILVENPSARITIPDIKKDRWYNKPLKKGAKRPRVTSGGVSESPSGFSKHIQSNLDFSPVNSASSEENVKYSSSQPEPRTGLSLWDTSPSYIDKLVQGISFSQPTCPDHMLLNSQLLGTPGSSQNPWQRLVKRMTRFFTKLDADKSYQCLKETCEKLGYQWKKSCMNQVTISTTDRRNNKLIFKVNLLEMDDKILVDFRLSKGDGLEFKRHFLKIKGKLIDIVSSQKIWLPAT
In words: Selectivity interaction (KinomeScan (DiscoverX)) EUB0001079a CHEK1. The conditions noted are these: at 1 µM.

For experiment [5], the target named is Glycogen synthase kinase-3 beta (Homo sapiens, UniProt P49841). In words: Selectivity interaction (KinomeScan (DiscoverX)) EUB0000092b GSK3B. The conditions noted are these: at 10 µM.
Experiment [6] addresses T3, Uncharacterized serine/threonine-protein kinase SBK3 (Homo sapiens) (UniProt P0C264).
T3 sequence (whole entry): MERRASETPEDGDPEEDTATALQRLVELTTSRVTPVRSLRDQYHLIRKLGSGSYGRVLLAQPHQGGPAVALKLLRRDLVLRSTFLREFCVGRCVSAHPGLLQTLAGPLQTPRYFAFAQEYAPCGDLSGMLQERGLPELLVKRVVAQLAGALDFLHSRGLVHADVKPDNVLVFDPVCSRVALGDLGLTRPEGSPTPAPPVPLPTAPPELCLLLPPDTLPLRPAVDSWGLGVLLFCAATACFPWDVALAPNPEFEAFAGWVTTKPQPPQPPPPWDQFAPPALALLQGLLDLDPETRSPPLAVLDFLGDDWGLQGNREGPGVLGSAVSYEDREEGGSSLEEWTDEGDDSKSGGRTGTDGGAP
In words: Selectivity interaction (KinomeScan (DiscoverX)) EUB0000092b SBK3. The conditions noted are these: at 10 µM.

The target in experiment [7] is NT-3 growth factor receptor (Homo sapiens, UniProt Q16288). As to the kind of experiment: Selectivity interaction (KinomeScan (DiscoverX)) EUB0000655a NTRK3. The conditions noted are these: at 10 µM.
The target of experiment [8] is Serine/threonine-protein kinase RIO2 (Homo sapiens) (UniProt Q9BVS4). As to the kind of experiment: Selectivity interaction (KinomeScan (DiscoverX)) EUB0001550a RIOK2. Particulars: at 1 µM.
The target of experiment [9] is Death-associated protein kinase 1 (Homo sapiens, UniProt P53355). As to the kind of experiment: Selectivity interaction (Kinase screening (Nanosyn)) EUB0000604a DAPK1.
The target in experiment [10] is Dual specificity mitogen-activated protein kinase kinase 1 (Homo sapiens, UniProt Q02750). In words: Selectivity interaction (ActivX KiNativ screen (kinase selectivity in THP-1 cell lysates)) EUB0000639a MAP2K1. The experiment is classed as subcellular. Particulars: lysate, at 0.01 µM.
For experiment [11], the target named is Dual specificity tyrosine-phosphorylation-regulated kinase 1A (Homo sapiens, UniProt Q13627). As to the kind of experiment: Selectivity interaction (KinomeScan (DiscoverX)) EUB0000229b DYRK1A. The conditions noted are these: at 10 µM.
Experiment [12] addresses Tyrosine-protein kinase BAZ1B (Homo sapiens) (UniProt Q9UIG0). As to the kind of experiment: Selectivity interaction (Human bromodomain panel (DSF assay)) EUB0000233b BAZ1B.
In experiment [13] the target is T4, Inhibitor of nuclear factor kappa-B kinase subunit alpha (Homo sapiens) (UniProt O15111).
T4 sequence (whole entry): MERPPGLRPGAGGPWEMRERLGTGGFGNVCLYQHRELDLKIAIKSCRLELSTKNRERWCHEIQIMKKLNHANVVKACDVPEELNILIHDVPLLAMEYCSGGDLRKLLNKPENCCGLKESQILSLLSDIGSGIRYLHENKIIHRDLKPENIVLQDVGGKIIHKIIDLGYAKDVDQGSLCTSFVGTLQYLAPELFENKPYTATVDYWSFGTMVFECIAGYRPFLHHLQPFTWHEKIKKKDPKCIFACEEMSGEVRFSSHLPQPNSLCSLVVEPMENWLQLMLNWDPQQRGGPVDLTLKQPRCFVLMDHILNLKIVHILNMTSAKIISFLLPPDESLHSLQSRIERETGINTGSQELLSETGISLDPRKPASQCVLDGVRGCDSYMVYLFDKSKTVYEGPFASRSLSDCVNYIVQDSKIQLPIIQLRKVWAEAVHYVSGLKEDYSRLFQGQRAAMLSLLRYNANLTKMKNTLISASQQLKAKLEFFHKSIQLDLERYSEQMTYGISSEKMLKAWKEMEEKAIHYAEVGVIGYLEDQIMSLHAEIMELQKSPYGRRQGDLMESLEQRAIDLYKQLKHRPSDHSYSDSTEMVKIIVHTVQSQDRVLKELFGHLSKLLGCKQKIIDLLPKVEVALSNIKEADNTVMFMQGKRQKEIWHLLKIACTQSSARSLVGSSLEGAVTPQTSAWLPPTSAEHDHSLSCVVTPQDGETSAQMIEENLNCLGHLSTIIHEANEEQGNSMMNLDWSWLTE
In words: Selectivity interaction (KinomeScan (DiscoverX)) EUB0000595a CHUK. The conditions noted are these: at 10 µM.

Sequence of Dual specificity mitogen-activated protein kinase kinase 1 (Q02750 whole entry): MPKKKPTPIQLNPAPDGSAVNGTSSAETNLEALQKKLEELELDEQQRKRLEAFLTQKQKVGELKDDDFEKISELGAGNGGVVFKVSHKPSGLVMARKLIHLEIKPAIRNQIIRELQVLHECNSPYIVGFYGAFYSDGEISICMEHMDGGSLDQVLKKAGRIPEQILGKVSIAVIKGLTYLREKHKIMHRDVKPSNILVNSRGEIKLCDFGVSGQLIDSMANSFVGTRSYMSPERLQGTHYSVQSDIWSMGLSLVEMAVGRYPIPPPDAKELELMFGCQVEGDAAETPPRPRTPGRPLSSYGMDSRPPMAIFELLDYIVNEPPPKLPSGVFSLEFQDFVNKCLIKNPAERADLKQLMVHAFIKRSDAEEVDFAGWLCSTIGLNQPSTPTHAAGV
Sequence of Death-associated protein kinase 1 (P53355 whole entry, looked up): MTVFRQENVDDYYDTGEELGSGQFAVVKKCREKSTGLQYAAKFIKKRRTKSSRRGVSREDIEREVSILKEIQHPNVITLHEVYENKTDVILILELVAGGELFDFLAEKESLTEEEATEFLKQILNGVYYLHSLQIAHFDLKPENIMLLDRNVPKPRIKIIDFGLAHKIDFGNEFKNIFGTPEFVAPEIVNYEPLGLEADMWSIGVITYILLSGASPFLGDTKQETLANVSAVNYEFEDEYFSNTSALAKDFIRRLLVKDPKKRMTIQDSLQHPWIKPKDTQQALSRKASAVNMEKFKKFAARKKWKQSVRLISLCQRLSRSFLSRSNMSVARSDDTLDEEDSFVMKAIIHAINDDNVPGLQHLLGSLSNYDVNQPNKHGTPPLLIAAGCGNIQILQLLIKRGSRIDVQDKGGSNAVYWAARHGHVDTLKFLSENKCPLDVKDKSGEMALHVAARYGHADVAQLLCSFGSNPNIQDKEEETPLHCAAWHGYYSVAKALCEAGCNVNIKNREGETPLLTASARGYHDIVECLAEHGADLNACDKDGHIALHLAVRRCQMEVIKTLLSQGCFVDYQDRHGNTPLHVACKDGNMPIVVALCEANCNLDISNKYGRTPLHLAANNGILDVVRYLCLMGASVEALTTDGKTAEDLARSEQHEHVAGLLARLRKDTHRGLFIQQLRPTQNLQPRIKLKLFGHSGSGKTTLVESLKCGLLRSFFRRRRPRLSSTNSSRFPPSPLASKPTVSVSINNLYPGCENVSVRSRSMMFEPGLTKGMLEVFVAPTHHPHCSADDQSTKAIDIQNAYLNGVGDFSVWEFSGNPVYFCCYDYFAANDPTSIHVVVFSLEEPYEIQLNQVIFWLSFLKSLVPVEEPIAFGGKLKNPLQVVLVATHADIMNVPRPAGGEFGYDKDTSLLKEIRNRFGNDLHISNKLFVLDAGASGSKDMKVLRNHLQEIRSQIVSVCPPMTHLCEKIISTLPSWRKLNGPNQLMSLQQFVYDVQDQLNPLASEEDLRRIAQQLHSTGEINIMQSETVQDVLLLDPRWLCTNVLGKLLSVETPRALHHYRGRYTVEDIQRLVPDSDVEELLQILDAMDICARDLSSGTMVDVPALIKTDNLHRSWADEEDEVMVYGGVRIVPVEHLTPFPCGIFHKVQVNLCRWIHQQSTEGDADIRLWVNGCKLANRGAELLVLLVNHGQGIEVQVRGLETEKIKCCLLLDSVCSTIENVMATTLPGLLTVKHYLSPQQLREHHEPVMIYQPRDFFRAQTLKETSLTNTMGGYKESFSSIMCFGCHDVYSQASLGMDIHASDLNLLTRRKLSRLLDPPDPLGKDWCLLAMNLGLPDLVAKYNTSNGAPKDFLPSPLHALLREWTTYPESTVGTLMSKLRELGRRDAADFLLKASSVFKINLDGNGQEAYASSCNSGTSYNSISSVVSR
Sequence of NT-3 growth factor receptor (Q16288 32-839 limits assumed): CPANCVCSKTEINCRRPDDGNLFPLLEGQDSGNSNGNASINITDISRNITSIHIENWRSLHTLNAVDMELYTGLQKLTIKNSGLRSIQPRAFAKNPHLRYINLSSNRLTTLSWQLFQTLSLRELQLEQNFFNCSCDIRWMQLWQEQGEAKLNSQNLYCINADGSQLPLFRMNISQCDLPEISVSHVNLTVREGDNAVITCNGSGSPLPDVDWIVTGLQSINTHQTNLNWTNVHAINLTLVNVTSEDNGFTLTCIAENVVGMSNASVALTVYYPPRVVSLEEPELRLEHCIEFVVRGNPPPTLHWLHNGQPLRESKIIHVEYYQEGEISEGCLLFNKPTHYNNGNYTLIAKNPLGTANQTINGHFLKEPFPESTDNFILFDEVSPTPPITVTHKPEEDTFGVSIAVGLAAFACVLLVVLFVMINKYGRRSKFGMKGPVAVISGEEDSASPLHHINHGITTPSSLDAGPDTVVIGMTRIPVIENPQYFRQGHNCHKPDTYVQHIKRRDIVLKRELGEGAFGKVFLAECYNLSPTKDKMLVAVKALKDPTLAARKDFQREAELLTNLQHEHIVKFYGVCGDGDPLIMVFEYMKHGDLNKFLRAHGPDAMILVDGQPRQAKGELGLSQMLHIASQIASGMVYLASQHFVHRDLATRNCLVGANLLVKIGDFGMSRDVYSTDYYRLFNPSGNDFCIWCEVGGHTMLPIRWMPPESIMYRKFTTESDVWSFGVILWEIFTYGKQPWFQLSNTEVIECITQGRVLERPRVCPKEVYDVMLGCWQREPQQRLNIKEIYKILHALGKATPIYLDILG
Sequence of Serine/threonine-protein kinase RIO2 (Homo sapiens) (Q9BVS4 whole entry, looked up): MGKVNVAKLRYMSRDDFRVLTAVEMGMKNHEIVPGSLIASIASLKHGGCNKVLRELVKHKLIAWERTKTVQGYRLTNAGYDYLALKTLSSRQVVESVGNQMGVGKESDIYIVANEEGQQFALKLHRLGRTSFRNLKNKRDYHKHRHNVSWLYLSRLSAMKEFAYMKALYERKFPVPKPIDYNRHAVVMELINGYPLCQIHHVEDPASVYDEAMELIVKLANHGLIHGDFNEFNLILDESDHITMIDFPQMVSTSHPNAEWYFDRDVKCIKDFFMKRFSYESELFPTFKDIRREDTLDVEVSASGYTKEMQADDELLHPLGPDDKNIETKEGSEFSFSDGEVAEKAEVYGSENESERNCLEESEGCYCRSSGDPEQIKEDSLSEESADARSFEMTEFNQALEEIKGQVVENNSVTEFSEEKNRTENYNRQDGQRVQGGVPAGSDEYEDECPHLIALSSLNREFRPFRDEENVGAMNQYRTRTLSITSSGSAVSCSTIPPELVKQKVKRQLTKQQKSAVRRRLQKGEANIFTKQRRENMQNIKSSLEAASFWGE
Sequence of Glycogen synthase kinase-3 beta (P49841 whole entry, looked up): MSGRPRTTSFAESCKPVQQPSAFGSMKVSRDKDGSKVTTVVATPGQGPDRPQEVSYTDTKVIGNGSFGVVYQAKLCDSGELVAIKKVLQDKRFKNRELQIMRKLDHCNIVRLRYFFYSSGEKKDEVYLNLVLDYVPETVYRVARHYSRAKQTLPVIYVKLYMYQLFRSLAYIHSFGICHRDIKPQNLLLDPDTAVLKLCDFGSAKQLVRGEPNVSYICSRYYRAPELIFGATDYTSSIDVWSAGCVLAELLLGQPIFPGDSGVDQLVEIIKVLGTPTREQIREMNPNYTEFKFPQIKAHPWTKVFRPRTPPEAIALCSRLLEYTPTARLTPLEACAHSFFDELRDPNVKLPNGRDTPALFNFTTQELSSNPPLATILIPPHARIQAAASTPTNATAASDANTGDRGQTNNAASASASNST
Sequence of Tyrosine-protein kinase BAZ1B (Homo sapiens) (Q9UIG0 whole entry): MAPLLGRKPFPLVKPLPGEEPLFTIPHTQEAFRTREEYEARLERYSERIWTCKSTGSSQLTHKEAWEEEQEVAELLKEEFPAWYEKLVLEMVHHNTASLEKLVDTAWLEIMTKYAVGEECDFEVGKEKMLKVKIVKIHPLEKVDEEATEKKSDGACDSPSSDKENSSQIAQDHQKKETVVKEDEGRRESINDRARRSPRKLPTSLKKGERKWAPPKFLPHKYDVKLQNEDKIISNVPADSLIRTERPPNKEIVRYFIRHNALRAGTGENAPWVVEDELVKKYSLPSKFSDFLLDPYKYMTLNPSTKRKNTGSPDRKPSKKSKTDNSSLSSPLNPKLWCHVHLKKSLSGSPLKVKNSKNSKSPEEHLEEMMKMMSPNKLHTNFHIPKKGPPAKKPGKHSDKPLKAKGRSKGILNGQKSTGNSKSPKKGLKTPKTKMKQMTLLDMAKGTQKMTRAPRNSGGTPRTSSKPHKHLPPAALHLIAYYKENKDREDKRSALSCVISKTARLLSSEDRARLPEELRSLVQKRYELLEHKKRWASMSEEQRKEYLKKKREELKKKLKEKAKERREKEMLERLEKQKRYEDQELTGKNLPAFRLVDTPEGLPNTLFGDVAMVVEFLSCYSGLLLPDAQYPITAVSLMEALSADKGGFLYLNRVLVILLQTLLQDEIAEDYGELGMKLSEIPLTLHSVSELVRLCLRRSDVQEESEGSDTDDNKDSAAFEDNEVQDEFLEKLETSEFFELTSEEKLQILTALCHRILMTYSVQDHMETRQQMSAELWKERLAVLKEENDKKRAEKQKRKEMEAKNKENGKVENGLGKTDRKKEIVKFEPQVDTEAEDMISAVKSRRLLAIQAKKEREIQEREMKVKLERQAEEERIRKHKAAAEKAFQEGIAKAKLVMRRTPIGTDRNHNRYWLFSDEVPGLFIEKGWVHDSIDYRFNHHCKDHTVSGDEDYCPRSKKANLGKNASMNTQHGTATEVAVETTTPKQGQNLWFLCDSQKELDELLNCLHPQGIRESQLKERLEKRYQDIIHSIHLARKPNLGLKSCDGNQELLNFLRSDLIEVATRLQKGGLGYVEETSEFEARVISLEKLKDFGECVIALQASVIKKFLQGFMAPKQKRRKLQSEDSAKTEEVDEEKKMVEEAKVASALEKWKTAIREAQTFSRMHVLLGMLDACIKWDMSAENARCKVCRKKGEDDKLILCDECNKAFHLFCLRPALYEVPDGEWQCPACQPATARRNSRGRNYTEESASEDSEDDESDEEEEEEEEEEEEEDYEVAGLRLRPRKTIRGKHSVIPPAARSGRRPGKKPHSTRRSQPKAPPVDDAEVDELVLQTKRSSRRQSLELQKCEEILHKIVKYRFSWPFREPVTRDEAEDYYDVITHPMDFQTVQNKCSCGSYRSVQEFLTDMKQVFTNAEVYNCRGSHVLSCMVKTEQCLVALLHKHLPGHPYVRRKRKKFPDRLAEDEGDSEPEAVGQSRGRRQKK

The compound `CCn1c(-c2nc3cc(C(=O)N4CCCC(N)C4)ccc3n2C)cc2ccccc21` (stereo not drawn) gave a pXC50 in experiment [1] of 5.4 M. Take `Cc1ccc(-c2ccc3c(ccc4sc5c(c43)NC[C@@H](C)NC5=O)n2)cn1`: in [2], the % of inhibition amounted to 68%. In experiment [3], `Cc1cc([C@@H](C)Nc2ccccc2C(=O)O)c2nc(N3CCOCC3)cc(=O)n2c1` [AZD-6482] returned a % of control of 100%. `Nc1cnc(N2CCc3cc(S(=O)(=O)Nc4c(F)cc(Cl)cc4F)cc(N4CCCC4=O)c32)nc1` [TP-020n] displayed a % of control in [4] of 95%.

For `CCC(=O)N1CCN(c2ccc(-n3c(=O)ccc4cnc5ccc(-c6cnc7ccccc7c6)cc5c43)cc2C(F)(F)F)CC1`, the % of control in experiment [5] stood at 100%; in experiment [6] it was 94%. As for `CN(C)CCOc1ccc(-c2nc(-c3ccncc3)c(-c3ccc4c(c3)CC/C4=N\O)[nH]2)cc1`, the % of control in experiment [7] was 45%. `CN(C)CC#Cc1ccc2[nH]c3c(c2c1)-c1nc(N)ncc1CCC3`: the % of control in [8] was determined as 32%. In the case of `Cc1cnc(Nc2ccc(F)cc2Cl)nc1-c1c[nH]c(C(=O)N[C@H](CO)c2cccc(Cl)c2)c1`, the % of inhibition in [9] turned out to be 2%. In the case of `CC[C@@H]1[C@H](F)C(=O)N[C@@H]1COc1nccc2cc(C(N)=O)c(OC)cc12` [ZIMLOVISERTIB], the % of inhibition in experiment [10] was -1.6%. For `COc1cc(N(C)c2ccnc3ccc(C(F)(F)F)cc23)cc(OC)c1OC`, in [11], the % binding was 65%. `CN(C)CCCOc1ccc(-c2cc(NCCCn3cccn3)nc(S(C)(=O)=O)n2)cc1`: the dTM in experiment [12] is less than 2 K. `COCC(=O)NC/C=C/c1ccc2ncnc(Nc3ccc(Oc4ccc(C)nc4)c(C)c3)c2c1` [CP-724714]: the % of control in experiment [13] is 100%.
